This is an account of results in US9150638B2, “Factor XII inhibitors for treating interstitial lung disease” (Justus-Liebig-Universität Giessen, priority 2010, dated 2015).

One assay relates to FXII. Briefly: TGF-β1-induced FXII expression in HLF. It is filed as cell-based, human. As to conditions: HLF treated with inhibitor 1 h prior to TGF-β1 for 48 h. How it is done:
Human lung specimens of the pulmonary parenchyma and mouse lungs were chopped into <1 mm^3 pieces. The minced pieces were washed twice with PBS and then plated in 100-mm dishes (Greiner-bio-one, Frickenhausen, Germany). The specimens were cultured with Dulbecco's modified Eagle's medium (DMEM; Invitrogen, Karlsruhe, Germany) supplemented with 10% fetal calf serum (FCS; HyClone, South Logan, UT), and 1% penicillin/streptomycin (Invitrogen) in humidified atmosphere of 5% CO2 at 37° C. Purity of isolated fibroblasts was verified by positive staining for vimentin, fibronectin and collagen IV. All experiments were carried out with lung fibroblasts from passages 3-4. The mouse NIH3T3 fibroblasts were cultured in DMEM supplemented with 10% FCS, and 1% penicillin/streptomycin in humidified atmosphere of 5% CO2 at 37° C.
(§1) Proteins separated on SDS polyacrylamide gel were transferred to a PVDF membrane (Amersham Biosciences, Freiburg, Germany) using wet transfer technique in transfer buffer (25 mM Tris, 192 mM Glycine, 20% (v/v) Methanol) for 1 h at 100V. After blocking with 5% non-fat dry milk in tris-buffered saline (TBS; 25 mM Tris-Cl, 150 mM NaCl, pH 7.5) containing 0.1% (v/v) Tween 20 (TBS-T), the membranes were incubated at 4° C. overnight with appropriate primary antibody diluted in 1% BSA in TBS-T. After 1 h incubation with peroxidase-labelled secondary antibody (all from Dako, Gostrup, Denmark) proteins were detected using ECL Plus Kit (Amersham Biosciences, Freiburg, Germany). To determine the amounts of protein loaded on the gel, blots were in 1 hour (stripping buffer: 100 mM Glycine, 1% HCl) and reprobed using an anti-β-actin or appropriate anti-pan antibody.
Pre-designed, commercially available siRNA sequences directed against human Smad 3 (Dharmacon, Chicago, Ill.), human JNK1 (Abnova, Heidelberg, Germany), and an universal negative-control siRNA (Ambion, Austin, Tex.) were employed. Cells were treated with siRNA (250 nM each) using the X-treme Gene siRNA Transfection Reagent (Roche). The siRNA-mediated downregulation of the target genes was assessed 72 h after transfection by Western blotting.

The next assay deals with FXII promoter. Briefly: FXII promoter luciferase assay in NIH3T3 cells. As to conditions: pGL3-299 construct; inhibitor 1 h prior to 10 ng/ml TGF-β1.
The subject of assay [1] is Smad 3. Briefly: Western blot of Smad 3 phosphorylation in TGF-β1 treated HLF. It is filed as cell-based, human. The method, then: as §1
(A western blot detects proteins with antibodies after separation by electrophoresis.)

The next assay concerns JNK. Briefly: Western blot of JNK activity in TGF-β1 treated HLF. The format is cell-based, human.
For assay [2], the system named is Smad 3. Briefly: TGF-β1 driven translocation of phospho-Smad 3 to the nucleus in HLF. The format is cell-based, human. The method, then:
as §1, with “antibody. […]” for “antibody.”
[…]. […] After boiling, the DNA-bound proteins were analyzed by Western blot using rabbit anti-phospho Smad 3 antibody (Cell Signaling). […]

In another assay the test system is Smad 3-SBE-272. Briefly: ChIP of the Smad 3-SBE-272 complex. It is filed as cell-based, human. The method, then: ChIP was performed using Chromatin Immunoprecipitation Assay Kit from Millipore (Schwalbach, Germany) according to manufacturer's instruction. […] The cross-linked chromatin was then prepared and sonicated to an average size of 500-800 bp. The DNA fragments were immunoprecipitated with rabbit anti-Smad 3 antibody (Cell Signaling) or IgG isotype control overnight at 4° C. After reversal of cross-linking, the immunoprecipitated chromatin was amplified by PCR using following primers: human FXII-299 bp forward: [NT] ID NO:25); human FXII-299 bp reverse: [NT] ID NO:26).

A further assay concerns the target T1, FXIIa (Homo sapiens, UniProt P00748).
T1 sequence (P00748 373-615 limits assumed): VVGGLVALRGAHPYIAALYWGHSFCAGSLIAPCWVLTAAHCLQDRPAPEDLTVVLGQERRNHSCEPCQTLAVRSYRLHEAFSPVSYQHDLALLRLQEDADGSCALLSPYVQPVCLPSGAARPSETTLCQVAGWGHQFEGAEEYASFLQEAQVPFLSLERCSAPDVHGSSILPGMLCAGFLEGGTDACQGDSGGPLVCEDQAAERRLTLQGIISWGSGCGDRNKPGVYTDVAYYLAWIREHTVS
T1 sequence (P00748 20-372 partner limits assumed): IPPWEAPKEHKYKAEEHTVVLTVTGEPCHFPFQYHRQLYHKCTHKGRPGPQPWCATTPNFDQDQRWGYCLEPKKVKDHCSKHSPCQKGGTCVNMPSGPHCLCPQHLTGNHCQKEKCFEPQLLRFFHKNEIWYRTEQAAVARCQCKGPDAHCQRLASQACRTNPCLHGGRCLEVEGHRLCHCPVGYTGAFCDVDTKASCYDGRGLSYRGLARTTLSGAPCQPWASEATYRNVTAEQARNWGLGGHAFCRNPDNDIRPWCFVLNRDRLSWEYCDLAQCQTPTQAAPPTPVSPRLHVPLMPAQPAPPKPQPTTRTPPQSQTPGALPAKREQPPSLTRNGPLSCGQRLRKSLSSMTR
The conditions noted are these: cited from earlier work.

Turning to `NC(=O)c1ccc(-c2nc(-c3ccc4c(c3)OCO4)c(-c3ccccn3)[nH]2)cc1` [SB431542], the “FXII expression in response to TGF-β1 (Western blot)” value in the assay with FXII is “reduction of FXII expression”. Further, the “TGF-β1 driven luciferase activity” value in the assay on FXII promoter was “strongly reduced”. Further, the “Smad 3 phosphorylation in response to TGF-β1” value in the assay on Smad 3 [1] was “attenuated”. Further, in the assay with JNK, the “JNK activity / JNK1 phosphorylation in response to TGF-β1” value is reported as “attenuated”. In the assay on Smad 3 [2] (HLF pretreated with inhibitor, TGF-β1 1 h), the “TGF-β1-induced Smad 3 translocation to the nucleus” value is “completely blocks”. Besides, the “accumulation of Smad 3 in the nucleus, inhibitor alone” value in the assay with Smad 3 [2] (HLF, without TGF-β1, data not shown) is recorded as “did not affect”. Besides, the “TGF-β1 induced Smad 3-DNA complex formation (ChIP)” value in the assay on Smad 3-SBE-272 (HLF pretreated with inhibitor 1 h prior to TGF-β1) is “completely abolished”. The “interaction of Smad3 with DNA, inhibitor alone” value in the assay on Smad 3-SBE-272 (without TGF-β1, data not shown) is reported as “did not affect”.
Turning to “Infestin-4: Kazal-type serine protease inhibitor domain 4 from Triatoma infestans, FXIIa inhibitor (SEQ ID NO: 33) (EVRNPCACFRNYVPVCGSDGKTYGNPCMLNCAAQTKVPGLKLVHEGRC; Triatoma infestans)”, the “prolonging activated partial thromboplastin time” value with FXIIa is given as “approximately three-fold”.
